Structures can show the parent of a compound that is named as a salt.
test: not given; details: cited from earlier work

Compound	Reported Solubility in water
Nc1nnc(-c2cccc(Cl)c2Cl)c(N)n1 [6-(2,3-Dichlorophenyl)-1,2,4-triazine-3,5-diamine]	Insoluble
COc1ccc2c(c1)c(CC(=O)OCC(=O)O)c(C)n2C(=O)c1ccc(Cl)cc1 [Acemetacin]	Insoluble
C[C@@H](O[C@H]1OCCN(Cc2n[nH]c(=O)[nH]2)[C@H]1c1ccc(F)cc1)c1cc(C(F)(F)F)cc(C(F)(F)F)c1 [Aprepitant]	Insoluble
O=C1CCc2ccc(OCCCCN3CCN(c4cccc(Cl)c4Cl)CC3)cc2N1 [Aripiprazole, 99%, Aripiprazole]	Insoluble
C[C@@H]1CC[C@H]2[C@@H](C)C(=O)O[C@@H]3O[C@@]4(C)CC[C@@H]1[C@]32OO4 [Artemisinin]	Insoluble
CC(=O)Oc1ccccc1C(=O)O [Aspirin]	Insoluble
COc1ccc(CCN2CCC(Nc3nc4ccccc4n3Cc3ccc(F)cc3)CC2)cc1 [Astemizole]	Insoluble
Nc1ncn([C@@H]2O[C@H](CO)[C@@H](O)[C@H]2O)c(=O)n1 [Azacitidine (Vidaza), Azacitidine]	Insoluble
Cn1cnc([N+](=O)[O-])c1Sc1ncnc2nc[nH]c12 [Azathioprine]	Insoluble
CN1CCCC(n2nc(Cc3ccc(Cl)cc3)c3ccccc3c2=O)CC1 (centres unmarked) [Azelastine]	Insoluble
CC[C@H]1OC(=O)[C@H](C)[C@@H](O[C@H]2C[C@@](C)(OC)[C@@H](O)[C@H](C)O2)[C@H](C)[C@@H](O[C@@H]2O[C@H](C)C[C@H](N(C)C)[C@H]2O)[C@](C)(O)C[C@@H](C)CN(C)[C@H](C)[C@@H](O)[C@]1(C)O [Azithromycin-dihydrate]	Insoluble
CCCC1O[C@@H]2C[C@H]3[C@@H]4CCC5=CC(=O)C=C[C@]5(C)[C@H]4[C@@H](O)C[C@]3(C)[C@]2(C(=O)CO)O1 (some centres unmarked) [Budesonide, 98%, Budesonide]	Insoluble
CS(=O)(=O)OCCCCOS(C)(=O)=O [Busulphan]	Insoluble
CC12CCC(CC1=O)C2(C)C (centres unmarked) [Camphor]	Insoluble
CC[C@@]1(O)C(=O)OCc2c1cc1n(c2=O)Cc2cc3ccccc3nc2-1 [Camptothecin]	Insoluble
CC1(C)S[C@@H]2[C@H](NC(=O)C(C(=O)O)c3ccccc3)C(=O)N2[C@H]1C(=O)O (some centres unmarked) [Carbenicillin disodium]	Insoluble
COc1ccccc1OCCNCC(O)COc1cccc2[nH]c3ccccc3c12 (centres unmarked) [Carvedilol]	Insoluble
CO/N=C(\C(=O)N[C@@H]1C(=O)N2C(C(=O)O)=C(COC(C)=O)CS[C@H]12)c1csc(N)n1 [Cefotaxime]	Insoluble
COC(=O)[C@H](c1ccccc1Cl)N1CCc2sccc2C1 [Clopidogrel Sulfate]	Insoluble

Compound	Reported Solubility in water
COc1cccc2c1C(=O)c1c(O)c3c(c(O)c1C2=O)C[C@@](O)(C(C)=O)C[C@@H]3O[C@H]1C[C@H](N)[C@H](O)[C@H](C)O1 [Daunorubicin hydrochloride]	Insoluble
O=C(O)Cc1ccccc1Nc1c(Cl)cccc1Cl [Diclofenac(pain), Diclofenac]	Insoluble
O=c1[nH]c2ccccc2n1CCCN1CCC(n2c(=O)[nH]c3cc(Cl)ccc32)CC1 [Domperidone]	Insoluble
CN(C)CCC[C@@]1(c2ccc(F)cc2)OCc2cc(C#N)ccc21 [Escitalopram]	Insoluble
CCc1cccc2c3c([nH]c12)C(CC)(CC(=O)O)OCC3 (centres unmarked) [Etodolac]	Insoluble
COc1cc([C@@H]2c3cc4c(cc3[C@@H](O[C@@H]3O[C@@H]5CO[C@@H](C)O[C@H]5[C@H](O)[C@H]3O)[C@H]3COC(=O)[C@H]23)OCO4)cc(OC)c1O [Etoposide]	Insoluble
NC(N)=Nc1nc(CSCCC(N)=NS(N)(=O)=O)cs1 [Famotidine]	Insoluble
CC(C)(C)NC(=O)[C@H]1CC[C@H]2[C@@H]3CC[C@H]4NC(=O)C=C[C@]4(C)[C@H]3CC[C@]12C [Finasteride]	Insoluble
COC1=CC(=O)C[C@@H](C)[C@]12Oc1c(Cl)c(OC)cc(OC)c1C2=O [Griseofulvin]	Insoluble
COc1ccc2c(c1)c(CC(=O)O)c(C)n2C(=O)c1ccc(Cl)cc1 [Indomethacin]	Insoluble
CC[C@H](C)C(=O)O[C@H]1CCC=C2C=C[C@H](C)[C@H](CC[C@@H]3C[C@@H](O)CC(=O)O3)[C@H]21 [Mevastatin]	Insoluble
COCCOC(=O)C1=C(C)NC(C)=C(C(=O)OC(C)C)C1c1cccc([N+](=O)[O-])c1 (centres unmarked) [Nimodipine]	Insoluble
CCn1cc(C(=O)O)c(=O)c2cc(F)c(N3CCNCC3)cc21 [Norfloxacin(antibiotic), Norfloxacin]	Insoluble
Cc1cc2c(s1)Nc1ccccc1N=C2N1CCN(C)CC1 [Olanzapine]	Insoluble
C=CC(=O)N1CCC[C@@H](n2nc(-c3ccc(Oc4ccccc4)cc3)c3c(N)ncnc32)C1 [PCI-32765]	Insoluble
CC(=O)O[C@H]1C(=O)[C@@]2(C)[C@H]([C@H](OC(=O)c3ccccc3)[C@]3(O)C[C@H](OC(=O)[C@H](O)[C@@H](NC(=O)c4ccccc4)c4ccccc4)C(C)=C1C3(C)C)[C@]1(OC(C)=O)CO[C@@H]1C[C@@H]2O [Paclitaxel from Taxus Brevifolia, Paclitaxel]	Insoluble
CC(=O)Nc1ccc(O)cc1 [Paracetamol]	Insoluble
C[C@]12C=CC(=O)C=C1CC[C@@H]1[C@@H]2C(=O)C[C@@]2(C)[C@H]1CC[C@]2(O)C(=O)CO [Prednisone]	Insoluble
Oc1ccc(C=Cc2cc(O)cc(O)c2)cc1 [Resveratrol]	Insoluble

test: Solubility with Polyphenolic Polymer in water; details: molecule formulated with Polyphenolic Polymer

Compound	Solubility with Polyphenolic Polymer in water (more than 99%)
CC(=O)Oc1ccccc1C(=O)O [Aspirin]	Water Soluble
CN1CCCC(n2nc(Cc3ccc(Cl)cc3)c3ccccc3c2=O)CC1 (centres unmarked) [Azelastine]	Water Soluble
CC[C@H]1OC(=O)[C@H](C)[C@@H](O[C@H]2C[C@@](C)(OC)[C@@H](O)[C@H](C)O2)[C@H](C)[C@@H](O[C@@H]2O[C@H](C)C[C@H](N(C)C)[C@H]2O)[C@](C)(O)C[C@@H](C)CN(C)[C@H](C)[C@@H](O)[C@]1(C)O [Azithromycin-dihydrate]	Water Soluble
CC[C@H](CC[C@@H](C)[C@H]1CC[C@H]2[C@@H]3CC=C4C[C@@H](O)CC[C@]4(C)[C@H]3CC[C@]12C)C(C)C [Beta-sitosterol]	Water Soluble
CCCC1O[C@@H]2C[C@H]3[C@@H]4CCC5=CC(=O)C=C[C@]5(C)[C@H]4[C@@H](O)C[C@]3(C)[C@]2(C(=O)CO)O1 (some centres unmarked) [Budesonide, 98%, Budesonide]	Water Soluble
CC12CCC(CC1=O)C2(C)C (centres unmarked) [Camphor]	Water Soluble
CC[C@@]1(O)C(=O)OCc2c1cc1n(c2=O)Cc2cc3ccccc3nc2-1 [Camptothecin]	Water Soluble
C/C(=C\c1csc(C)n1)[C@@H]1C[C@@H]2O[C@@H]2CCC[C@H](C)[C@H](O)[C@@H](C)C(=O)C(C)(C)[C@@H](O)CC(=O)O1 [Epothilone A]	Water Soluble
N[C@@H](Cc1ccc(N(CCCl)CCCl)cc1)C(=O)O [Melphalan(cancer), Melphalan]	Water Soluble
C[C@@H]1[C@H](O)[C@@H](C)/C=C/C=C/CC/C=C/C=C/C=C/C=C/C(O[C@H]2O[C@H](C)[C@@H](O)[C@H](N)[C@@H]2O)CC2O[C@](O)(CC(O)C(O)CCC(O)CC(O)CC(O)CC(=O)O[C@H]1C)CC(O)C2C(=O)O (some centres unmarked) [Nystatin mycostatin]	Water Soluble
Ivermectin	Water Soluble
Pyrethrin	Water Soluble

Source: patent US11622937B2, “Polyphenolic polymer to make water-insoluble molecules become water-soluble” (priority 2015, dated 2023)
